In patent publication US10815224B2, “Monocyclic heteroaryl substituted compounds” (Bristol-Myers Squibb Company, priority 2016, dated 2020) one finds IC50 data, which are given here for 32 compounds.

The target of one assay is T1, PAR4 (Homo sapiens, UniProt Q96RI0).
T1 construct: expressed in transfected cells; host or cells: HEK293 PAR4 Clone 1.2A (BMS Arctic ID 383940)
T1 sequence (Q96RI0 18-385): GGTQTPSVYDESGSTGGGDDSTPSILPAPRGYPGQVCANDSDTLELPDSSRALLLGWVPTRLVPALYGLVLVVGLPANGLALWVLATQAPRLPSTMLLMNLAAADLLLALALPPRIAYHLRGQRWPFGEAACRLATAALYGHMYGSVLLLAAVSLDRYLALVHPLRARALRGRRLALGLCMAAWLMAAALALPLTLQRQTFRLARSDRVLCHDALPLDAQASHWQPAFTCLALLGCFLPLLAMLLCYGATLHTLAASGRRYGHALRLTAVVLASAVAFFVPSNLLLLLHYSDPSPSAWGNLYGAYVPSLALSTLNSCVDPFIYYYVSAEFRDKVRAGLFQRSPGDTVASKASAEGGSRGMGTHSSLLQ
The experiment in a line: PAR4 FLIPR assay: calcium mobilization in PAR4-expressing HEK293 cells. Format: cell-based.
Details: not given
The text has this: The FLIPR assay is an exemplary in vitro assay for measuring the activity of the PAR4 antagonists of the present invention. In this assay, intracellular calcium mobilization is induced in PAR4 expressing cells by a PAR4 agonist and calcium mobilization is monitored.
HEK293 cells stably expressing PAR4 were generated by a standard method of transfection of human PAR4 (F2R23) cDNA expression vector and selected based on PAR4 protein expression or mRNA expression. […] Therefore, the same cells were also used to determine selectivity against PAR1 and agonist activity for both receptors.
FLIPR-based calcium mobilization assay in HEK293 cells was used to measure PAR4 antagonism, agonism, and selectivity against PAR1. […] Counter screens for agonist activity and PAR1 antagonist activity were also performed. […] Cells were plated overnight prior to the experiment in a black 384-well Purecoat Amine clear bottom plate (Becton Dickinson Biosciences, San Jose, Calif.) at 10,000 cells/well in 30 μL growth medium and incubated in a humidified chamber at 37° C. with 5% CO2 overnight. Prior to compound addition, the cell medium was replaced with 40 μL of 1× calcium and magnesium-containing Hank's Balanced Saline Solution (HBSS) (with 20 mM HEPES) and 1:1000 diluted fluorescent calcium indicator (Codex Biosolutions, Gaithersburg, Md.). After a 30 minute incubation period at 37° C., and a further 30 minute incubation and equilibration period at room temperature, 20 μL test compound (diluted in 1×HBSS buffer) was added at various concentrations at 0.17% dimethyl sulfoxide (DMSO) final concentration. Changes in fluorescence intensity were measured using a Functional Drug Screening System (FDSS, Hamamatsu, Japan) to determine agonist activities. The cells were then incubated for 30 minutes at room temperature followed by addition of 20 μL of agonist peptide for antagonist activity measurement. […] Compound potency was derived from 11-point concentration-response curves.
(In general: A change in cytosolic calcium serves as a functional read-out for many receptors and channels.)
One may read the IC50 as the concentration at which inhibition is half-maximal. With `COCc1cnc2c(-c3ncc(-c4ccc(OC)cn4)s3)cc(C)cc2n1` [Example 53, 2-(2-(methoxymethyl)-7-methylquinoxalin-5-yl)-5-(5-methoxypyridin-2-yl)thiazole], the IC50 stood at 290 nM. On the same count and under the same terms, the same measure for `Cc1cc(-c2nc(C)c(-c3c(O)cccc3F)s2)c2ncc(OC(F)F)nc2c1` [Example 12, 2-(2-(2-(difluoromethoxy)-7-methylquinoxalin-5-yl)-4-methylthiazol-5-yl)-3-fluoropheno]: 8.1 nM. On the same count and under the same terms, the same measure for `Cc1cc(-c2ncc(C)s2)c2ncc(OC(F)F)nc2c1` [Example 4, 2-(2-(difluoromethoxy)-7-methylquinoxalin-5-yl)-5-methylthiazole]: 520 nM; for `Cc1cc(-c2nc(C)c(-c3ccccc3O)s2)c2ncc(OC(F)F)nc2c1` [Example 15, 2-(2-(2-(difluoromethoxy)-7-methylquinoxalin-5-yl)-4-methylthiazol-5-yl)phenol]: 5.9 nM; for `Cc1cc(-c2ncc(-c3cc(O)ccc3F)s2)c2ncc(OC(F)F)nc2c1` [Example 25, 3-(2-(2-(difluoromethoxy)-7-methylquinoxalin-5-yl)thiazol-5-yl)-4-fluorophenol]: 15 nM. Same read-out and setting: under `COCc1cnc2c(-c3ncc(-c4cccc(O)c4)s3)cc(C)cc2n1` [Example 49, 3-(2-(2-(methoxymethyl)-7-methylquinoxalin-5-yl)thiazol-5-yl)phenol] stands 19 nM; under `Cc1cc(-c2ncc(-c3cncc(O)c3)s2)c2ncc(OC(F)F)nc2c1` [Example 14, 5-(2-(2-(difluoromethoxy)-7-methylquinoxalin-5-yl)thiazol-5-yl)pyridin-3-ol], 170 nM; under `COc1ccc(-c2cnc(-c3cc(C)cc4nc(OC)cnc34)s2)nc1` [Example 52, 2-(2-methoxy-7-methylquinoxalin-5-yl)-5-(5-methoxypyridin-2-yl)thiazole], 550 nM. Regarding `Cc1cc(-c2ncc(-c3ccccc3)s2)c2ncc(OC(F)F)nc2c1` [Example 28, 2-(2-(difluoromethoxy)-7-methylquinoxalin-5-yl)-5-phenyl thiazole], the 50% inhibitory concentration (IC50) is 43 nM. Still for that read-out and setting: the same measure for `Cc1ccc(O)c(-c2cnc(-c3cc(C)cc4nc(OC(F)F)cnc34)s2)c1` [Example 20, 2-(2-(2-(difluoromethoxy)-7-methylquinoxalin-5-yl)thiazol-5-yl)-4-methylphenol]: 31 nM; for `Cc1cc(-c2ncc(-c3cccc(O)c3)s2)c2ncc(OC(F)F)nc2c1` [Example 51, 3-(2-(2-(difluoromethoxy)-7-methylquinoxalin-5-yl)thiazol-5-yl)phenol]: 7.1 nM.

With `Cc1cc(-c2ncc(CO)s2)c2ncc(OC(F)F)nc2c1` [Example 39, (2-(2-(difluoromethoxy)-7-methylquinoxalin-5-yl)thiazol-5-yl)methanol], the IC50 was found to be 2000 nM. Same read-out and setting: the same measure for `Cc1cc(-c2ncc(-c3cccc4cc[nH]c34)s2)c2ncc(OC(F)F)nc2c1` [Example 37, 2-(2-(difluoromethoxy)-7-methylquinoxalin-5-yl)-5-(1H-indol-7-yl)thiazole]: 60 nM; for `C=Cc1csc(-c2cc(C)cc3nc(OC(F)F)cnc23)n1` [Example 8, 2-(2-(difluoromethoxy)-7-methylquinoxalin-5 yl)-4-vinylthiazole]: 100 nM; for `COCc1cnc2c(-c3ncc(-c4ccccc4)s3)cc(C)cc2n1` [Example 18, 2-(2-(methoxymethyl)-7-methylquinoxalin-5-yl)-5-phenylthiazole]: 6.2 nM. Still for that read-out and setting: under `Cc1cc(-c2ncc(-c3cccc(Cl)c3O)s2)c2ncc(OC(F)F)nc2c1` [Example 23, 2-(2-(2-(difluoromethoxy)-7-methylquinoxalin-5-yl)thiazol-5-yl)-6-chlorophenol] stands 14 nM. Same read-out and setting: the same measure for `Cc1cc(-c2ncc(-c3cccc4[nH]ccc34)s2)c2ncc(OC(F)F)nc2c1` [Example 38, 2-(2-(difluoromethoxy)-7-methylquinoxalin-5-yl)-5-(l H-indol-4-yl)thiazole]: 820 nM; for `COc1cnc2c(-c3cc(-c4ccccc4)no3)cc(C)cc2n1` [Example 1, 5-(2-methoxy-7-methylquinoxalin-5-yl)-3-phenylisoxazole]: 80 nM. As for `Cc1cc(-c2ncc(-c3ccncc3)s2)c2ncc(OC(F)F)nc2c1` [Example 43, 2-(2-(difluoromethoxy)-7-methylquinoxalin-5-yl)-5-(pyridin-4-yl)thiazole], the IC50 is 330 nM. The same measure, in the same setting: the same measure for `Cc1cc(-c2ncc(-c3cc(F)ccc3O)s2)c2ncc(OC(F)F)nc2c1` [Example 21, 2-(2-(2-(difluoromethoxy)-7-methylquinoxalin-5-yl)thiazol-5-yl)-4-fluorophenol]: 8.8 nM; for `COc1cnc2c(-c3nc(C(F)(F)F)c(C(=O)C4CCCCC4)s3)cc(C)cc2n1` [Example 47, Cyclohexyl(2-(2-methoxy-7-methylquinoxalin-5-yl)-4-(trifluoromethyl)thiazol-5-yl) methanone]: 53 nM.

Take `Cc1cc(-c2ncc(-c3cc(O)ccc3OC(F)(F)F)s2)c2ncc(OC(F)F)nc2c1` [Example 27]: the IC50 turned out to be 20 nM.

`Cc1cc(-c2ncc(-c3cccc(F)c3O)s2)c2ncc(OC(F)F)nc2c1` [Example 19, 2-(2-(2-(difluoromethoxy)-7-methylquinoxalin-5-yl)thiazol-5-yl)-6-fluorophenol]: the IC50 amounted to 5.9 nM.

Turning to `Cc1cc(-c2ncc(-c3c(O)cccc3F)s2)c2ncc(OC(F)F)nc2c1` [Example 24, 2-(2-(2-(difluoromethoxy)-7-methylquinoxalin-5-yl)thiazol-5-yl)-3-fluorophenol], the IC50 was 8.3 nM. The same measure, in the same setting: under `Cc1cc(-c2ncc(N3CCCCC3)s2)c2ncc(OC(F)F)nc2c1` [Example 13, 2-(2-(difluoromethoxy)-7-methylquinoxalin-5-yl)-5-(piperidin-1-yl)thiazole] stands 12 nM. Same read-out and setting: the same measure for `COc1cnc2c(-c3ncc(-c4ccccc4C(F)F)s3)cc(C)cc2n1` [Example 45, 5-(2-(difluoromethyl)phenyl)-2-(2-methoxy-7-methylquinoxalin-5-yl)thiazole]: 25 nM; for `Cc1cc(-c2ncc(-c3ccccn3)s2)c2ncc(OC(F)F)nc2c1` [Example 44, 2-(2-(difluoromethoxy)-7-methylquinoxalin-5-yl)-5-(pyridin-2-yl)thiazole]: 79 nM. On to `Cc1cc(-c2ncc(Cc3ccccc3)s2)c2ncc(OC(F)F)nc2c1` [Example 7, 5-benzyl-2-(2-(difluoromethoxy)-7-methylquinoxalin-5-yl)thiazole], for which the IC50 was 95 nM.

With `Cc1cc(-c2nc(C)cs2)c2ncc(OC(F)F)nc2c1` [Example 36, 2-(2-(difluoromethoxy)-7-methylquinoxalin-5-yl)-4-methylthiazole], the IC50 amounted to 64 nM.

For `Cc1cc(-c2nc(C)c(-c3cccc(O)c3)s2)c2ncc(OC(F)F)nc2c1` [Example 6, 3-(2-(2-(difluoromethoxy)-7-methylquinoxalin-5-yl)-4-methylthiazol-5-yl)phenol], the IC50 was determined as 1 nM. Still for that read-out and setting: the same measure for `Cc1cc(-c2ncc(-c3cc(Cl)ccc3O)s2)c2ncc(OC(F)F)nc2c1` [Example 22, 2-(2-(2-(difluoromethoxy)-7-methylquinoxalin-5-yl)thiazol-5-yl)-4-chlorophenol]: 18 nM.

The assay is the same for the next values; noted with them: HEK293 cells expressing human PAR4; calcium mobilization induced by H-Ala-Phe(4-F)-Pro-Gly-Trp-Leu-Val-Lys-Asn-Gly-NH2.
Regarding `Cc1cc(-c2nc(C(C)(C)C)cs2)c2ncc(OC(F)F)nc2c1` [Example 41], the IC50 was found to be 450 nM.
